Reference: patent publication US20110257245A1, “METHODS OF IDENTIFYING REGULATORS OF CELLULAR PROTEOSTASIS” (The Board of Trustees of the Leland Stanford Junior …, priority 2010, published 2011)
Where a SMILES comes first, the peptide text is derived from it. The star is where a group is joined. Cbz = O=C(OCc1ccccc1)*

Columns and labels:
[1] = tested on: HEK293 cells stably expressing GFP-CL1, UbG76V-GFP, Ub-R-GFP or cODC-GFP; test: Fluorescent proteasome reporters challenged with proteasome inhibitor; type: cell-based; conditions: 10 μM MG-132, all four reporters
Protocol: FIG. 6 depicts features of fluorescent proteasome reporters, used in embodiments of the present invention. Untransfected HEK293 cells, and cells stably expressing GFP-CL1, UbG76V-GFP, Ub-R-GFP or cODC-GFP were treated with 10 μM MG-132 and at the times indicated, mean GFP fluorescence was analyzed by flow cytometry (Panel A) or by fluorescence microscopy of living cells (Panel B). […] Cells were incubated overnight at the permissive temperature 32° C. (black bars), at 32° C. in the presence of 10 μM MG-132 (white bars) or at the non-permissive temperature 40° C. (grey bars). Mean GFP fluorescence was analyzed by flow cytometry, and plotted as relative fluorescence change. […] HEK293 cells stably expressing UbG76V-GFP or GFP were transiently transfected with httchFP, and analyzed as described in FIG. 1B. […] Htt(Q91)-chFP-specific GFP fluorescence is plotted for GFP (♦) and UbG76V-GFP expressing cells (▪).
Unless indicated, cells were harvested 72 hrs after transfection and analyzed with a Becton-Dickinson LSRII flow cytometer with a 488 nm and a 535 nm Laser (BD, Franklin Lakes, N.J.). To ensure a sufficient number of cells with elevated levels of the transfected protein, over 200,000 cells were analyzed per condition in a typical experiment. […] Raw flow cytometry data were analyzed using FlowJo (version 8.8.6, Tree Star) software. […]

[2] = tested on: 26S proteasomes; test: In vitro Sic1 degradation assay; type: biochemical, rat
Protocol: The substrate degradation reaction was carried out at room temperature in 50-100 μL total volume containing 10 nM 26S, 1×ATP buffer, and 100 nM [35S]Sic1-Ubn. 5 μL reaction aliquots were removed at various time points and separated on a 4-20% gradient gel followed by autoradiography. Alternately, aliquots were added to 10% trichloroacetic acid (TCA) or ddH20 on ice for 30 min and 2 mg/mL bovine serum albumin as a carrier. Samples were centrifuged at 12,000×g for 30 min, and the supernatant removed for analysis by scintillation spectrometry. The percent of degradation was determined by dividing the measured counts after TCA precipitation by the total counts measured in ddH20. To assess the ubiquitin-dependence of degradation, [35S]Sic1-Ubn was pretreated with 10 nM Usp2 cc (Baker et al., 2005) for 30 min at 37° C. prior to the addition of proteasomes. To inhibit substrate degradation, 26S proteasomes were pretreated with 10 μM MG132 (Biomol) prior to the addition of substrate. The initial rate of degradation was determined by least-squares linear regression analyses of 5, 10, and 20 min time points using Sigmaplot. The dependence of the initial rate of degradation on substrate concentration was plotted, and the data fit to the Michaelis-Menten equation using Sigmaplot.

| Molecule | fluorescence of GFP-degron proteasome reporters [1] | effect on degradation of PY-Sic1(Ubn) by purified proteasomes ([2]; 10 μM MG132, 10 nM 26S, 100 nM substrate) | Km ([2]; 10 nM 26S proteasomes, read-out: Km of [35S]PY-Sic1(Ubn) degradation (Michaelis-Menten analysis)) |
| --- | --- | --- | --- |
| CC(C)C[C@@H](C=O)NC(=O)[C@H](CC(C)C)NC(=O)[C@H](CC(C)C)NC(=O)OCc1ccccc1 [MG132] (Cbz-Leu-Leu-Leu-aldehyde) | diffuse time-dependent increases in cytoplasmic fluorescence | inhibited | – |
| [35S]PY-Sic1(Ubn): [35S]-labeled polyubiquitinated PY-Sic1 model substrate of the 26S proteasome (protein, UniProt P38634 1-284, looked up, 35S label, PY motif, polyubiquitinated, [35S]-labeled polyubiquitinated PY-Sic1 model substrate of the 26S proteasome) Protein SIC1: MTPSTPPRSRGTRYLAQPSGNTSSSALMQGQKTPQKPSQNLVPVTPSTTKSFKNAPLLAPPNSNMGMTSPFNGLTSPQRSPFPKSSVKRTLFQFESHDNGTVREEQEPLGRVNRILFPTQQNVDIDAAEEEEEGEVLLPPSRPTSARQLHLSLERDEFDQTHRKKIIKDVPGTPSDKVITFELAKNWNNNSPKNDARSQESEDEEDIIINPVRVGKNPFASDELVTQEIRNERKRAMLRENPDIEDVITYVNKKGEVVEKRRLTDEEKRRFKPKALFQSRDQEH | – | – | 46.9 ± 3.5 nM |
